Data: US20260021147A1, “COMPOSITIONS AND METHODS FOR TREATING INFLAMMATORY DISEASE” (The Regents of the University of Michigan, priority 2022, published 2026)

Tests used:
[1] = Short chain fatty acids profiling of mouse feces by IC-MS; type: in vivo, mice; conditions: allogeneic mice, day 20
Procedure: To determine the relative abundance of short chain fatty acids in mouse feces samples, extracts were prepared and analyzed by ultra-high resolution mass spectrometry (HRMS). Fecal pellets were homogenized with a Precellys Tissue Homogenizer. Metabolites were extracted using 1 mL ice-cold 0.1% Ammonium hydroxide in 80/20 (v/v) methanol/water. Extracts were centrifuged at 17,000 g for 5 min at 4° C., and supernatants were transferred to clean tubes, followed by evaporation to dryness under nitrogen. Dried extracts were reconstituted in deionized water, and 5 μL was injected for analysis by IC-MS. IC mobile phase A (MPA; weak) was water, and mobile phase B (MPB; strong) was water containing 100 mM KOH. A Thermo Scientific Dionex ICS-5000+ system included a Thermo IonPac AS11 column (4 μm particle size, 250×2 mm) with column compartment kept at 30° C. The autosampler tray was chilled to 4° C. The mobile phase flow rate was 360 μL/min, and the gradient elution program was: 0-5 min, 1% MPB; 5-25 min, 1-35% MPB; 25-39 min, 35-99% MPB; 39-49 min, 99% MPB; 49-50, 99-1% MPB. The total run time was 50 min. To assist the desolvation for better sensitivity, methanol was delivered by an external pump and combined with the eluent via a low dead volume mixing tee. Data were acquired using a Thermo Orbitrap Fusion Tribrid Mass Spectrometer under ESI negative ionization mode at a resolution of 240,000. […]

[2] = system: allogeneic mice (B6D2F1 recipients of B6 donor cells); test: Murine GvHD model (allo-HSCT): survival and GvHD histology; type: in vivo; conditions: for severity of colonic GvHD: antibiotic in drinking water, colon collected day 20, vs control allogeneic mice
Procedure: In a murine model with a mucin-deficient mutate strain of BT, piperacillin/tazobactam was given at a concentration of 3.2 g/L in combination with vancomycin and metronidazole dosed 1.5 mg daily by oral gavage from days −16 to −12 relative to transplant.
D-(+)-xylose (X3877, Sigma-Aldrich) or D-(+)-glucose (G8270, Sigma-Aldrich) was dissolved in phosphate buffer pH 8.0 with meropenem or in water without meropenem and given at a concentration of 0.5% from days 13 to 28 after allo-HSCT.
Mice were transplanted as previously described (Hayase et al., 2017).
(§1) Pathology scores were quantified by a blinded pathologist. […] Sections were imaged using an Aperio AT2.

[3] = system: intestinal microbiota; test: 16S rRNA sequencing of fecal and mucosal microbiome in mice; type: in vivo
Procedure: Fecal samples which were collected from patients and mice and colonic mucosal samples, which were collected from mice were weighed before DNA isolation. […] The quality and quantity of the barcoded amplicons were assessed on an Agilent 4200 TapeStation system (Agilent) and Qubit Fluorometer (Thermo Fisher Scientific), and libraries were prepared after pooling at equimolar ratios. The final libraries were purified using QIAquick gel extraction kit (28706X4, Qiagen) and sequenced with a 2×250 base pair paired-end protocol on the Illumina MiSeq platform.
For differential abundance analysis, abundances of sequences belonging to taxonomical groups were included for analysis using the Mann-Whitney U test and adjusted for multiple comparisons using the method of Benjamini-Hochberg. Paired samples were analyzed using the Wilcoxon signed rank test with adjustment for multiple comparisons.

[4] = system: colonic mucus layer; test: Colonic mucus thickness by PAS staining; type: in vivo, mice; conditions: meropenem-treated allogeneic mice (FIG. 6, FIG. 12 titles)
Text: as §1

[5] = system: mouse- and human-derived BT; test: Bacterial culture of BT with or without monosaccharide; type: cell-based, Bacteroides thetaiotaomicron; conditions: carbohydrate-poor media, in vitro
Procedure: Mouse-derived BT (MDA-JAX BT001), Enterococcus faecalis (MDA-JAX EF001) and Clostridium disporicum (MDA-JAX CD001), Clostridium saudiense (MDA-JAX CS001), and Lachnospiraceae unclassified (MDA-JAX LS001) were isolated and cultured from mouse stool samples suspended in 1 ml of chilled 20% anaerobic glycerol in a Whitley anaerobic chamber (10% H2, 5% CO2 and 85% N2). Human-derived BT (ATCC 29148) was purchased from ATCC. Bacterial number was quantified using a Nexcelom Cellometer cell counter with SYTO™ BC dye and propidium iodide. For measuring MICs against meropenem, bacteria were cultured on BYE plates including 5% sterilized rumen fluid (Fisher Scientific) with MIC test strips (Liofilchem™ MTS™ Meropenem [MRP] 0.016-256 μg/mL, Fisher Scientific). Bacterial growth experiments were performed in a bacterial liquid media, BYEM10, composed of a hybrid of BHI and M10 supplemented with yeast extract (Table 4). Bacteria were cultured up to 48 hours at a starting concentration of 1×10^6 bacteria/ml in BYEM10 broth (pH 7.2) with and without 5 mg/ml of porcine gastric mucin (M1778, Sigma-Aldrich) with or without 0.5 mg/ml of D-(+)-xylose (X3877), D-(+)-mannose (M8574, Sigma-Aldrich) or D-(+)-glucose (G8270). Optical densities (OD600 nm) of bacterial cultures were measured with a BioTek EPOCH 2 plate reader.

[6] = system: BT (MDA-JAX BT001) PUL transcripts; test: RNA sequencing of stool: PUL expression in BT; type: in vivo, Bacteroides thetaiotaomicron; conditions: supplementation in meropenem-treated allogeneic mice
Procedure: Approximately 30 mg of stool was freshly collected in 700 μL of ice cold Qiazol containing 200 μL of 0.1 mm diameter Zirconia Silica beads (11079101z, BioSpec). Samples were bead beaten twice for 2 min with a 30 second interval recovery. Samples were then centrifuged at 12,000 g for 1 min and the supernatant was collected for RNA isolation using the RNeasy mini kit (74104, Qiagen). RNA was treated on column with DNase I (79254, Qiagen) to eliminate contaminating genomic DNA. RNA quantity and quality was determined using an Agilent 4200 TapeStation system (Agilent). 250 ng of total RNA from mouse stools was used to construct libraries using the Nugen Ovation Complete Prokaryotic RNA-Seq Systems (NuGen) or the Universal Prokaryotic RNA-Seq Library Preparation Kit (9367-32, Tecan) with Unique Dual Indexes (S02480-FG, Tecan), following the manufacturer's protocol. The cDNA libraries were sequenced on the Illumina MiSeq or NovaSeq 6000 system to produce either 1×300 bp single-end reads or 2×150 bp paired-end reads. […] The total reads of mouse stool samples were 950923±113406 (mean ±standard deviation) in FIG. 6A and 137623366±38865363 in FIG. 6G-H and 12G. […] Aligned mRNA expression changes were calculated using the Mann-Whitney U test in R software version 3.6.0 via RStudio version 1.2.1335. […]

## CO/N=C(\C(=O)N[C@@H]1C(=O)N2C(C(=O)[O-])=C(C[N+]3(C)CCCC3)CS[C@H]12)c1csc(N)n1 [cefepime]
[1]
  fecal levels of SCFAs: did not show substantially reduced fecal levels of SCFAs
[2]
  severity of colonic GvHD: do not increase the severity of colonic GvHD
[3]; day 20, compared to meropenem-treated mice
  abundances of BT: significantly lower abundances of BT
[3]; treated allogeneic mice, PERMANOVA testing
  compositional differences between luminal and mucosal samples: loss of compositional differences

## C[C@H]1COc2c(N3CCN(C)CC3)c(F)cc3c(=O)c(C(=O)O)cn1c23 [levofloxacin]
[2]
  severity of colonic GvHD: do not increase the severity of colonic GvHD

## O=C[C@H](O)[C@@H](O)[C@H](O)CO [xylose, D-(+)-xylose]
[4]
  mucolytic activity / mucus-degrading function of BT: suppressed
[5]
  growth of mouse- and human-derived BT: augmented
[6]
  expression of ORF GH2_PUL89_16: significantly downregulated
[2]; 0.5% xylose days 13 to 28, meropenem-treated allogeneic mice
  overall survival: significantly improved the survival
